Source: ChEMBL document CHEMBL1135977, “Comparison of 3D structures and AT(1) binding properties of pyrazolidine-3,5-diones and tetrahydropyridazine-3,6-diones with parent antihypertensive drug irbesartan” (J Med Chem, 2002)

Tests used:
[1] = Inhibition of AII(50 nM) induced intracellular [Ca2+] increase in PLC-PRF cells; format: functional, cell-based; details: Homo sapiens
[2] = biological target: T1, Type-1 angiotensin II receptor (Homo sapiens, UniProt P30556); assay: In vitro binding affinity towards Angiotensin II receptor, type 1 of human hepatoma cell line PLC-PRF-5
T1 sequence (P30556 whole entry): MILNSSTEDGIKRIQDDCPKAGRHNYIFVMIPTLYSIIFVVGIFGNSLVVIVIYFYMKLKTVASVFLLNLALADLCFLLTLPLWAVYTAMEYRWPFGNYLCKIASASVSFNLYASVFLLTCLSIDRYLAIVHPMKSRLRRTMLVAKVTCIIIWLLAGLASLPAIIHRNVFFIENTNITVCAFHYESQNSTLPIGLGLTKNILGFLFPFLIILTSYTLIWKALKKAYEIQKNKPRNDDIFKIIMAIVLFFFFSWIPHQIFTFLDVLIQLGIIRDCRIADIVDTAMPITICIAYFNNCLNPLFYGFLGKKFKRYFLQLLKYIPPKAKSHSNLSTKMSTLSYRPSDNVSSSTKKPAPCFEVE

Row | Structure (SMILES) | IC50 [1] [nM] | Ki [2] [nM]
1 | CCCCN1C(=O)C2(CCCC2)CC(=O)N1Cc1ccc(-c2ccccc2-c2nnn[nH]2)cc1 | 102 | 80
2 | CCCCN1C(=O)C2(CCCC2)C(=O)N1Cc1ccc(-c2ccccc2-c2nn[nH]n2)cc1 | 28 | –
3 | CCCCN1C(=O)CC2(CCCC2)C(=O)N1Cc1ccc(-c2ccccc2-c2nn[nH]n2)cc1 | 9 | 14
4 | CCCCC1=NC2(CCCC2)C(=O)N1Cc1ccc(-c2ccccc2-c2nnn[nH]2)cc1 [IRBESARTAN] | 4 | –
